# Molecular target: T1, human M1 receptor (hCHRM1) (Homo sapiens, UniProt P11229)
# T1 construct: expressed in transfected cells
# T1 sequence (P11229 1-460): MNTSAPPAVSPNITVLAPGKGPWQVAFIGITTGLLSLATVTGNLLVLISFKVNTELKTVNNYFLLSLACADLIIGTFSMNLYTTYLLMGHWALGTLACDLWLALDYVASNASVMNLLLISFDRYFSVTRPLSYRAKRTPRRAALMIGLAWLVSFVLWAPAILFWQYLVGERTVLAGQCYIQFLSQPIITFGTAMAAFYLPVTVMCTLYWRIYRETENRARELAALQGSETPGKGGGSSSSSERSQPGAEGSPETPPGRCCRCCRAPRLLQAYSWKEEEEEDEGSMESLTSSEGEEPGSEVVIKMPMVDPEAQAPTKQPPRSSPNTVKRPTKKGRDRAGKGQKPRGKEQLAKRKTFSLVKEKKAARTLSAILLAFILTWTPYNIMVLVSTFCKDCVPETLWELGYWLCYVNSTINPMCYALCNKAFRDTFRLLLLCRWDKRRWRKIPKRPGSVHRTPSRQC
# Experiment: Measurement of M1 receptor positive allosteric modulator (M1PAM) activity (IP1 HTRF, in presence of EC20 acetylcholine)
# Format: cell-based
# Settings: CHO-K1 cells stably expressing hCHRM1; acetylcholine at EC20 concentration; IP1 readout
# Experimental: Measurement of M1 Receptor Positive Allosteric Modulator (M1PAM) Activity
# The activity of a test compound in the presence of acetylcholine at an EC20 concentration affording about 20% action of the maximum activity was measured as PAM activity.
# The method therefor is as follows. To a 384-well white plate (Greiner) was added 4 μL of the test compound diluted with IP1 Stimulation buffer (CisBio) containing 0.1% fatty acid-free BSA containing 80 nM acetylcholine. Freeze stock of CHO-K1 cells stably expressing human M1 receptor (hCHRM1) was prepared with IP1 Stimulation buffer (CisBio) containing 0.1% fatty acid-free BSA, 4 μL thereof was added (10,000 cells/well) and the mixture was cultured in a 5% CO2 incubator at 37° C. for 1 hr. 4 μL of a solution (CisBio) containing IP1-d2 and Anti-IP1-cryptate Tb conjugate was added, the mixture was incubated at room temperature for 1 hr, and the time-resolved fluorescence signal was measured on an Envision plate reader (PerkinElmer). The activity (%) of the test compound was calculated by defining the value when acetylcholine was added at the final concentration of 20 μM as 100% and the value when DMSO was added instead of the test compound under acetylcholine-free conditions as 0%, and the EC50 value was calculated as a value of 50% of the concentration dependence curve of the test compound.
compound,measurement,value
"Cc1c(Cc2ccc(-c3cnn(C)c3)nc2)cc(C(=O)N[C@H]2CCOC[C@@H]2O)c2c1CCO2 [Example 2, 1,5-anhydro-2,3-dideoxy-3-[{4-methyl-5-{[6-(1-methyl-1H-pyrazol-4-yl)pyridin-3-yl]methyl}-2,3-dihydro-1-benzofuran-7-carbonyl)amino]-L-threo-pentitol]",EC50,33 nM
"Cc1nn(C)cc1-c1ccc(Cc2cc(C(=O)N[C@H]3CCOC[C@@H]3O)c3c(c2C)CCO3)cn1 [Example 3, 1,5-anhydro-2,3-dideoxy-3-[(5-{[6-(1,3-dimethyl-1H-pyrazol-4-yl)pyridin-3-yl]methyl}-4-methyl-2,3-dihydro-1-benzofuran-7-carbonyl)amino]-L-threo-pentitol]",EC50,46 nM
"Cc1c(Cc2ccc(C(N)=O)cc2)cc(C(=O)N[C@H]2CCOC[C@@H]2O)c2c1CCO2 [Example 5, 1,5-anhydro-3-({5-[(4-carbamoylphenyl)methyl]-4-methyl-2,3-dihydro-1-benzofuran-7-carbonyl}amino)-2,3-dideoxy-L-threo-pentitol]",EC50,12 nM
"CNC(=O)c1ccc(Cc2cc(C(=O)N[C@H]3CCOC[C@@H]3O)c3c(c2C)CCO3)cc1F [Example 21, 1,5-anhydro-2,3-dideoxy-3-[(5-{[3-fluoro-4-(methylcarbamoyl)phenyl]methyl)-4-methyl-2,3-dihydro-1-benzofuran-7-carbonyl)amino]-L-threo-pentitol]",EC50,24 nM
"Cc1c(Cc2ccc(C(=O)NC[C@@H]3CCCO3)c(F)c2)cc(C(=O)N[C@H]2CCOC[C@@H]2O)c2c1CCO2 [Example 30, 1,5-anhydro-2,3-dideoxy-3-[(5-{[3-fluoro-4-({[(2S)-oxolan-2-yl]methyl}carbamoyl)phenyl]methyl}-4-methyl-2,3-dihydro-1-benzofuran-7-carbonyl)amino]-L-threo-pentitol]",EC50,56 nM
"Cc1c(Cc2ccc(C(=O)NC3CC3)c(F)c2)cc(C(=O)N[C@H]2CCOC[C@@H]2O)c2c1CCO2 [Example 31, 1,5-anhydro-3-[(5-{[4-(cyclopropylcarbamoyl)-3-fluorophenyl]methyl}-4-methyl-2,3-dihydro-1-benzofuran-7-carbonyl)amino]-2,3-dideoxy-L-threo-pentitol]",EC50,37 nM
"Cc1c(Cc2ccc(C(=O)NCCF)c(F)c2)cc(C(=O)N[C@H]2CCOC[C@@H]2O)c2c1CCO2 [Example 35, 1,5-anhydro-2,3-dideoxy-3-{[5-({3-fluoro-4-[(2-fluoroethyl)carbamoyl]-phenyl}methyl)-4-methyl-2,3-dihydro-1-benzofuran-7-carbonyl]amino}-L-threo-pentitol]",EC50,16 nM
"CNC(=O)c1ccc(Cc2cc(C(=O)N[C@H]3CCOC[C@@H]3O)c3c(c2C)CCO3)cn1 [Example 36, 1,5-anhydro-2,3-dideoxy-3-[(4-methyl-5-{[6-(methylcarbamoyl)pyridin-3-yl]methyl}-2,3-dihydro-1-benzofuran-7-carbonyl)amino]-L-threo-pentitol]",EC50,130 nM

# — patent US11970483B2, “Heterocyclic compound” (Takeda Pharmaceutical Company Limited, priority 2018, dated 2024)
